Assay results reported in patent EP0019589A1, “Tripeptide derivatives and their use in a process for determining enzymes” (Pentapharm A.G., priority 1979, dated 1980).
Non-standard residues stand in square brackets, D forms with d. Residues, ends and D or L forms follow the SMILES beside them. *: point of attachment. Cha = N[C@@H](CC1CCCCC1)C(=O)O; dCha = N[C@H](CC1CCCCC1)C(=O)O; dChg = N[C@@H](C(=O)O)C1CCCCC1; dPhg = N[C@@H](C(=O)O)c1ccccc1; pNA = O=[N+]([O-])c1ccc(N*)cc1; Chg = N[C@H](C(=O)O)C1CCCCC1; dNle = CCCC[C@@H](N)C(=O)O; dNva = CCC[C@@H](N)C(=O)O; dAbu = CC[C@@H](N)C(=O)O

Assays:
Format in all cases: biochemical
Urinkallikrein = target: T1, Urinkallikrein (Homo sapiens, UniProt P06870); assay: Cleavage of chromogenic substrate by urinary kallikrein in human urine; conditions: 1 ml human urine (pooled morning urine of healthy persons), per min; Substratkonzentration 2 x 10^-4 molar
T1 construct: 1 ml Urin und 1 ml TRIS-Imidazol-Puffer mit pH 7,9; from tissue; host or cells: human urine
T1 sequence (P06870 25-262): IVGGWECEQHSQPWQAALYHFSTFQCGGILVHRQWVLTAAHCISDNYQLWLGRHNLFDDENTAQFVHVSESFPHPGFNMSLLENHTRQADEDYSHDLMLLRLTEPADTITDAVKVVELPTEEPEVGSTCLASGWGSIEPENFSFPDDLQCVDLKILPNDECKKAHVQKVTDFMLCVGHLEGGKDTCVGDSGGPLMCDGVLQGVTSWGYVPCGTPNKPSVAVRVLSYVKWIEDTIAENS

[1] = target: T2, Submandibularis-Kallikrein (Homo sapiens, UniProt P06870); assay: Cleavage of chromogenic substrate by submandibular (glandular) kallikrein in human sputum; conditions: 1 ml human sputum, per min; Substratkonzentration 2 x 10^-4 molar
T2 construct: Man mischt 0,5 ml Sputum mit 2 ml TRIS-Imidazol-Puffer; from tissue; host or cells: human sputum
T2 sequence (P06870 25-262): as above
Procedure, shortened: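 Sputum mixed with TRIS-imidazole buffer (ionic strength 1.0), preincubated 5 min at 37°C and centrifuged; supernatant incubated with aqueous substrate solution (2 x 10^-3 M, stock). p-Nitroaniline release followed continuously at 405 nm for 5-10 min; activity expressed as mU per ml sputum from ΔOD/min.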

Humanplasmin = target: T3, Humanplasmin (Homo sapiens, UniProt P00747); assay: Cleavage of chromogenic substrate by human plasmin; conditions: 1 CU-Einheit human plasmin, per min; Substratkonzentration 2 x 10^-4 molar
T3 construct: da bei der Aktivierung aus 1 Molekül Plasminogen 1 Molekül Plasmin entsteht
T3 sequence (P00747 581-810 limits assumed): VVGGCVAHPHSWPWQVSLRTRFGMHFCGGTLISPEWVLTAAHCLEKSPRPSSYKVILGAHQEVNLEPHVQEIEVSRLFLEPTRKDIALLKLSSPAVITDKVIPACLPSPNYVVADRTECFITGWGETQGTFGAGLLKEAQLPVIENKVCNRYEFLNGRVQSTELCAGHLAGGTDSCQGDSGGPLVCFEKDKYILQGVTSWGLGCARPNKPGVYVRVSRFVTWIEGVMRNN
T3 sequence (P00747 97-580 partner limits assumed): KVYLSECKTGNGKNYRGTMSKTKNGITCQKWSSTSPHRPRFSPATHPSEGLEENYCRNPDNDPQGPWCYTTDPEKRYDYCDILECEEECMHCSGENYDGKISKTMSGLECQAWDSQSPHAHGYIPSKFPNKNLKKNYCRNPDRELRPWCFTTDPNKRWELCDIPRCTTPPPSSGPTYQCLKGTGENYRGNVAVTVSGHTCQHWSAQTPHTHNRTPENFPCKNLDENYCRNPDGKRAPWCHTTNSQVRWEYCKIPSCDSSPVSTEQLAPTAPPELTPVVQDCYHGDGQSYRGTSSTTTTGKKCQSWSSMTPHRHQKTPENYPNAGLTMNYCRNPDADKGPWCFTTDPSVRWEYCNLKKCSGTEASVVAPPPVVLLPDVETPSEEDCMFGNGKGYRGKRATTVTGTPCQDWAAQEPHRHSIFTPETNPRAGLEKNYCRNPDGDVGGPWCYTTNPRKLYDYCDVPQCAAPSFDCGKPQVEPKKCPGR

Humanthrombin = target: T4, Humanthrombin (Homo sapiens, UniProt P00734); assay: Cleavage of chromogenic substrate by human NIH thrombin; conditions: 1 NIH-Einheit human thrombin, per min; Substratkonzentration 2 x 10^-4 molar
T4 construct: Humanplasmin und hu-manem NIH-Thrombin
Procedure, shortened: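 Thrombin hydrolysis of chromogenic p-nitroanilide substrate read spectrophotometrically at 405 nm; fluorogenic naphthylamine, methylcoumarylamine or di(methoxycarbonyl)phenylamine substrates read continuously by fluorescence emission at 400-470 nm. Activity taken as product formed per unit time; 1 µmol product/min defined as 1 enzyme unit for a given substrate.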

SMILES	Menge des durch 1 ml Humanurin pro Min. freigesetzten Spaltproduktes R-NH2 in Nanomol (Urinkallikrein) (Urinkallikrein)	Menge des durch 1 ml Humansputum pro Min. freigesetzten Spaltproduktes R-NH2 in Nanomol (Submandibularis-Kallikrein) [1]	Menge des durch 1 CU-Einheit Humanplasmin pro Min. freigesetzten Spaltproduktes R-NH2 in Nanomol (Humanplasmin) (Humanplasmin)	Menge des durch 1 NIH-Einheit Thrombin pro Min. freigesetzten Spaltproduktes R-NH2 in Nanomol (Humanthrombin) (Humanthrombin)
CC(C)[C@@H](N)C(=O)N[C@H](C(=O)N[C@@H](CCCCN)C(=O)Nc1ccc([N+](=O)[O-])cc1)C1CCCCC1 [Beispiel 30, 2AcOH.H-D-Val-CHG-Lys-pNA] (H-[dV]-[Chg]-Lys-pNA)	0 Nanomol	1,3 Nanomol	61 Nanomol	0,27 Nanomol
NCCCC[C@H](NC(=O)[C@@H]1CCCN1C(=O)[C@H](N)C1CCCCC1)C(=O)Nc1ccc([N+](=O)[O-])cc1 [Beispiel 31, 2AcOH.H-D-CHG-Pro-Lys-pNA] (H-[dChg]-Pro-Lys-pNA)	0 Nanomol	1,9 Nanomol	231 Nanomol	3,78 Nanomol
NCCCC[C@H](NC(=O)[C@@H]1CCCN1C(=O)[C@H](N)CC1CCC(O)CC1)C(=O)Nc1ccc([N+](=O)[O-])cc1 (stereo partly drawn) [Beispiel 32, 2AcOH.H-D-CHT-Pro-Lys-pNA]	0,20 Nanomol	3,8 Nanomol	613 Nanomol	0,8 Nanomol
NCCCC[C@H](NC(=O)[C@H](CC1CCCCC1)NC(=O)[C@H](N)c1ccccc1)C(=O)Nc1ccc([N+](=O)[O-])cc1 [Beispiel 33, 2AcOH.H-D-Ph'Gly-CHA-Lys-pNA] (H-[dPhg]-[Cha]-Lys-pNA)	0,10 Nanomol	0,9 Nanomol	837 Nanomol	0,4 Nanomol
CC(C)[C@@H](N)C(=O)N[C@@H](CC1CCC(O)CC1)C(=O)N[C@@H](CCCCN)C(=O)Nc1ccc([N+](=O)[O-])cc1 (stereo partly drawn) [Beispiel 34, 2AcOH.H-D-Val-CHT-Lys-pNA]	1,40 Nanomol	16,5 Nanomol	532 Nanomol	0,4 Nanomol
NCCCC[C@H](NC(=O)[C@H](CC1CCC(O)CC1)NC(=O)[C@H](N)c1ccccc1)C(=O)Nc1ccc([N+](=O)[O-])cc1 (stereo partly drawn) [Beispiel 35, 2AcOH.H-D-Ph'Gly-CHT-Lys-pNA]	0,10 Nanomol	0,9 Nanomol	894 Nanomol	0,5 Nanomol
CC(C)C[C@@H](N)C(=O)N[C@@H](CC1CCCCC1)C(=O)N[C@@H](CCCNC(=N)N)C(=O)Nc1ccc([N+](=O)[O-])cc1 [Beispiel 36, 2HBr.H-D-Leu-CHA-Arg-pNA] (H-[dL]-[Cha]-Arg-pNA)	3,11 Nanomol	35,9 Nanomol	1069 Nanomol	6,8 Nanomol
CCCC[C@@H](N)C(=O)N[C@@H](CC1CCCCC1)C(=O)N[C@@H](CCCNC(=N)N)C(=O)Nc1ccc([N+](=O)[O-])cc1 [Beispiel 37, 2HBr.H-D-Nleu-CHA-Arg-pNA] (H-[dNle]-[Cha]-Arg-pNA)	2,08 Nanomol	28,1 Nanomol	1179 Nanomol	7,3 Nanomol
CCC[C@@H](N)C(=O)N[C@@H](CC1CCCCC1)C(=O)N[C@@H](CCCNC(=N)N)C(=O)Nc1ccc([N+](=O)[O-])cc1 [Beispiel 38, 2HBr.H-D-Nval-CHA-Arg-pNA] (H-[dNva]-[Cha]-Arg-pNA)	3,12 Nanomol	41,3 Nanomol	969 Nanomol	5,1 Nanomol
N=C(N)NCCC[C@H](NC(=O)[C@H](CC1CCCCC1)NC(=O)[C@H](N)Cc1ccccc1)C(=O)Nc1ccc([N+](=O)[O-])cc1 [Beispiel 39, 2HBr.H-D-Phe-CHA-Arg-pNA] (H-[dF]-[Cha]-Arg-pNA)	2,14 Nanomol	28,5 Nanomol	814 Nanomol	3,9 Nanomol
C[C@@H](N)C(=O)N[C@@H](CC1CCCCC1)C(=O)N[C@@H](CCCNC(=N)N)C(=O)Nc1ccc([N+](=O)[O-])cc1 [Beispiel 40, 2HBr.H-D-Ala-CHA-Arg-pNA] (H-[dA]-[Cha]-Arg-pNA)	1,73 Nanomol	22,4 Nanomol	433 Nanomol	1,5 Nanomol
CC[C@@H](N)C(=O)N[C@@H](CC1CCCCC1)C(=O)N[C@@H](CCCNC(=N)N)C(=O)Nc1ccc([N+](=O)[O-])cc1 [Beispiel 41, 2HBr.H-D-But-CHA-Arg-pNA] (H-[dAbu]-[Cha]-Arg-pNA)	2,99 Nanomol	31,2 Nanomol	623 Nanomol	2,8 Nanomol
N=C(N)NCCC[C@H](NC(=O)[C@H](Cc1ccc(O)cc1)NC(=O)[C@H](N)C1CCCCC1)C(=O)Nc1ccc([N+](=O)[O-])cc1 [Beispiel 42, 2HBr.H-D-CHG-Tyr-Arg-pNA] (H-[dChg]-Tyr-Arg-pNA)	0,49 Nanomol	3,9 Nanomol	969 Nanomol	2,0 Nanomol
N=C(N)NCCC[C@H](NC(=O)[C@H](Cc1ccc(O)cc1)NC(=O)[C@H](N)CC1CCCCC1)C(=O)Nc1ccc([N+](=O)[O-])cc1 [Beispiel 43, 2HBr.H-D-CHA-Tyr-Arg-pNA] (H-[dCha]-Tyr-Arg-pNA)	0,49 Nanomol	5,2 Nanomol	1407 Nanomol	8,3 Nanomol
CCC[C@@H](N)C(=O)N[C@@H](Cc1ccc(O)cc1)C(=O)N[C@@H](CCCNC(=N)N)C(=O)Nc1ccc([N+](=O)[O-])cc1 [Beispiel 44, 2HBr.H-D-Nval-Tyr-Arg-pNA] (H-[dNva]-Tyr-Arg-pNA)	0,42 Nanomol	4,9 Nanomol	1219 Nanomol	1,8 Nanomol
N=C(N)NCCC[C@H](NC(=O)[C@H](Cc1ccc(O)cc1)NC(=O)[C@H](N)Cc1ccccc1)C(=O)Nc1ccc([N+](=O)[O-])cc1 [Beispiel 46, 2HBr.H-D-Phe-Tyr-Arg-pNA] (H-[dF]-Tyr-Arg-pNA)	0,26 Nanomol	6,1 Nanomol	843 Nanomol	2,6 Nanomol
N=C(N)NCCC[C@H](NC(=O)[C@H](Cc1ccc(O)cc1)NC(=O)[C@H](N)c1ccccc1)C(=O)Nc1ccc([N+](=O)[O-])cc1 [Beispiel 47, 2HBr.H-D-Ph'Gly-Tyr-Arg-pNA] (H-[dPhg]-Tyr-Arg-pNA)	0,19 Nanomol	7,0 Nanomol	818 Nanomol	1,0 Nanomol
